Assay: xn = mol fraction of the nth substance listed
Conditions: 333.09 K, Liquid, Vibrating tube method

CCCCCCCCCCC [undecane] + CCCCCCC
Conditions | mass density [kg/m3]
2004 kPa, x2 = 0.2346 | 702.3
3000 kPa, x2 = 0.05 | 711
3003 kPa, x2 = 0.2346 | 703.3
4000 kPa, x2 = 0.05 | 712
4003 kPa, x2 = 0.2346 | 704.2
5000 kPa, x2 = 0.05 | 712.9
5003 kPa, x2 = 0.2346 | 705.2
6000 kPa, x2 = 0.05 | 713.8
6003 kPa, x2 = 0.2346 | 706.1
7000 kPa, x2 = 0.05 | 714.7
7003 kPa, x2 = 0.2346 | 707
8001 kPa, x2 = 0.05 | 715.6
8002 kPa, x2 = 0.2346 | 708
9000 kPa, x2 = 0.05 | 716.5
9002 kPa, x2 = 0.2346 | 708.9
10000 kPa, x2 = 0.05 | 717.3
10002 kPa, x2 = 0.2346 | 709.7
11000 kPa, x2 = 0.05 | 718.2
11002 kPa, x2 = 0.2346 | 710.6
12000 kPa, x2 = 0.05 | 719
12002 kPa, x2 = 0.2346 | 711.5
13000 kPa, x2 = 0.05 | 719.9
13001 kPa, x2 = 0.2346 | 712.3
14000 kPa, x2 = 0.05 | 720.7
14001 kPa, x2 = 0.2346 | 713.2
15000 kPa, x2 = 0.05 | 721.5
15002 kPa, x2 = 0.2346 | 714
16000 kPa, x2 = 0.05 | 722.3
16002 kPa, x2 = 0.2346 | 714.8
17000 kPa, x2 = 0.05 | 723.1
17002 kPa, x2 = 0.2346 | 715.6
18000 kPa, x2 = 0.05 | 723.8
18002 kPa, x2 = 0.2346 | 716.4
19000 kPa, x2 = 0.05 | 724.6
19001 kPa, x2 = 0.2346 | 717.2
20000 kPa, x2 = 0.05 | 725.4
20002 kPa, x2 = 0.2346 | 718
21000 kPa, x2 = 0.05 | 726.1
21035 kPa, x2 = 0.2346 | 718.8
22001 kPa, x2 = 0.05 | 726.8
22036 kPa, x2 = 0.2346 | 719.5
23000 kPa, x2 = 0.05 | 727.6
23038 kPa, x2 = 0.2346 | 720.3
24000 kPa, x2 = 0.05 | 728.3
24039 kPa, x2 = 0.2346 | 721
25000 kPa, x2 = 0.05 | 729
25041 kPa, x2 = 0.2346 | 721.8

From the NIST ThermoML archive (doi:10.1021/je400055v)
